Test system: NOMO1
Test: cell viability relative to DMSO control; higher = less cytotoxic
Details: 48 h
Method in brief: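 Before seeding, each leukemia line was adapted for at least four passages in each medium. NOMO1 or SEM cells (500 cells/well) and P12-Ichikawa cells (1000 cells/well) went into 1536-well plates at 5 μl, then received library compounds in DMSO by pin dosing across 11 threefold concentrations, 47 μM to 0.79 nM. Readout was CellTiter-Glo One luminescence after 48 h at 37°C, and viability is given as a per-plate percentage of DMSO wells, with cell-free wells as background.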

[1] = HPLM + 10% dialyzed FBS, 0.000781 µM
[2] = HPLM + 10% dialyzed FBS, 0.00234 µM
[3] = HPLM + 10% dialyzed FBS, 0.00702 µM
[4] = HPLM + 10% dialyzed FBS, 0.0211 µM
[5] = HPLM + 10% dialyzed FBS, 0.0632 µM
[6] = HPLM + 10% dialyzed FBS, 0.19 µM
[7] = HPLM + 10% dialyzed FBS, 0.569 µM
[8] = HPLM + 10% dialyzed FBS, 1.71 µM
[9] = HPLM + 10% dialyzed FBS, 5.12 µM
[10] = HPLM + 10% dialyzed FBS, 15.4 µM
[11] = HPLM + 10% dialyzed FBS, 46.1 µM
[12] = RPMI 5 mM glucose + 10% FBS, 0.000781 µM
[13] = RPMI 5 mM glucose + 10% FBS, 0.00234 µM
[14] = RPMI 5 mM glucose + 10% FBS, 0.00702 µM
[15] = RPMI 5 mM glucose + 10% FBS, 0.0211 µM
[16] = RPMI 5 mM glucose + 10% FBS, 0.0632 µM
[17] = RPMI 5 mM glucose + 10% FBS, 0.19 µM
[18] = RPMI 5 mM glucose + 10% FBS, 0.569 µM
[19] = RPMI 5 mM glucose + 10% FBS, 1.71 µM
[20] = RPMI 5 mM glucose + 10% FBS, 5.12 µM
[21] = RPMI 5 mM glucose + 10% FBS, 15.4 µM
[22] = RPMI 5 mM glucose + 10% FBS, 46.1 µM
[23] = RPMI 5 mM glucose + 10% dialyzed FBS, 0.000781 µM
[24] = RPMI 5 mM glucose + 10% dialyzed FBS, 0.00234 µM
[25] = RPMI 5 mM glucose + 10% dialyzed FBS, 0.00702 µM
[26] = RPMI 5 mM glucose + 10% dialyzed FBS, 0.0211 µM
[27] = RPMI 5 mM glucose + 10% dialyzed FBS, 0.0632 µM
[28] = RPMI 5 mM glucose + 10% dialyzed FBS, 0.19 µM
[29] = RPMI 5 mM glucose + 10% dialyzed FBS, 0.569 µM
[30] = RPMI 5 mM glucose + 10% dialyzed FBS, 1.71 µM
[31] = RPMI 5 mM glucose + 10% dialyzed FBS, 5.12 µM
[32] = RPMI 5 mM glucose + 10% dialyzed FBS, 15.4 µM
[33] = RPMI 5 mM glucose + 10% dialyzed FBS, 46.1 µM

SMILES	cell viability [1] [%]	cell viability [2] [%]	cell viability [3] [%]	cell viability [4] [%]	cell viability [5] [%]	cell viability [6] [%]	cell viability [7] [%]	cell viability [8] [%]	cell viability [9] [%]	cell viability [10] [%]	cell viability [11] [%]	cell viability [12] [%]	cell viability [13] [%]	cell viability [14] [%]	cell viability [15] [%]	cell viability [16] [%]	cell viability [17] [%]	cell viability [18] [%]	cell viability [19] [%]	cell viability [20] [%]	cell viability [21] [%]	cell viability [22] [%]	cell viability [23] [%]	cell viability [24] [%]	cell viability [25] [%]	cell viability [26] [%]	cell viability [27] [%]	cell viability [28] [%]	cell viability [29] [%]	cell viability [30] [%]	cell viability [31] [%]	cell viability [32] [%]	cell viability [33] [%]
CCOC\1=C(/C(=O)NC2=CC=C(OC3=C(Cl)C(=NC=C3)N)C(=C2)F)C(=O)N(\C=C1)C4=CC=C(F)C=C4	86.9	96.1	99.3	96.1	102	106	91.6	75.6	75.1	70.9	39.1	99.8	102	104	90.4	100	96.6	93.5	88.7	90	92	51.9	111	96.1	92.2	94.7	95.3	96.8	89.1	95.8	100	74.7	52.7
CC/C(=C(\c1ccccc1)c1ccc(OCCN(C)C)cc1)c1ccccc1	95	122	107	99.5	119	113	113	92.4	111	92.5	49.1	94.8	102	102	115	103	101	94.1	99	96.1	105	76.7	93.1	99.2	104	103	115	110	114	99.8	117	81	34.7
O=C(/C=C/c1cccnc1)NCCCCC1CCN(C(=O)c2ccccc2)CC1	102	59.8	33.1	17.4	13.1	7.89	6.3	7.27	9.47	10.6	6.73	105	110	47	28	12.9	9.19	8.33	8.21	8.16	8.07	7.6	110	75.6	39	30.7	16.8	9.73	7.83	8.77	7.77	8.34	6.8
Clc1ccc(C(Cn2ccnc2)OCc2ccsc2Cl)c(Cl)c1 (stereo not drawn)	102	127	114	116	103	98.8	108	113	134	117	80.6	89.7	106	119	102	110	102	119	105	96.6	111	94.2	88	113	112	129	99	122	118	113	96.3	100	73.5
NC(=O)Cc1cccc(C(=O)c2ccccc2)c1N	79.5	98.2	122	95.4	108	109	110	102	108	96.8	102	92.3	101	88.4	91.2	96.8	88	84.7	98.8	85.2	93.7	81.9	97.4	87.3	96.1	82.7	101	98.3	91.6	86.9	95.6	77.8	88.1
COc1ccc(-c2cc3c(C)nc(N)nc3n([C@H]3CC[C@H](OCCO)CC3)c2=O)cn1	96.9	97.5	88.7	76.4	74.2	50	52.6	38	38.8	28.3	20	93.6	87	90.7	84.8	87.4	64.5	68.5	47.7	43.1	40.3	28.4	86.8	86.6	80.7	75.1	66.4	58.4	50	41.2	37.6	34.8	23.3

— the supplement of paper PMC11451515
